Measurements from PMC6599640 (Pharmaceutical research, 2018).
Read-outs that look alike come from different tables or passages of the source.

Experiments:
[1] = in vitro; settings: human, Caco-2
[2] = MTT viability assay on SMI microtissues after drug exposure; settings: human, SMI (small intestinal) microtissues
[3] = target: P-gp (Homo sapiens, UniProt P08183); experiment: in vitro
[4] = Drug permeability across SMI microtissues; settings: human, A-B Papp, Table VIII, 10 μM, 2 h, n = 3
[5] = tested on: SMI microtissues; experiment: Drug permeability across SMI microtissues; settings: for Efflux: Table VIII, 10 μM, 2 h
[6] = target: BCRP (Homo sapiens, UniProt Q9UNQ0); experiment: in vitro
Chain of BCRP (Q9UNQ0 whole entry): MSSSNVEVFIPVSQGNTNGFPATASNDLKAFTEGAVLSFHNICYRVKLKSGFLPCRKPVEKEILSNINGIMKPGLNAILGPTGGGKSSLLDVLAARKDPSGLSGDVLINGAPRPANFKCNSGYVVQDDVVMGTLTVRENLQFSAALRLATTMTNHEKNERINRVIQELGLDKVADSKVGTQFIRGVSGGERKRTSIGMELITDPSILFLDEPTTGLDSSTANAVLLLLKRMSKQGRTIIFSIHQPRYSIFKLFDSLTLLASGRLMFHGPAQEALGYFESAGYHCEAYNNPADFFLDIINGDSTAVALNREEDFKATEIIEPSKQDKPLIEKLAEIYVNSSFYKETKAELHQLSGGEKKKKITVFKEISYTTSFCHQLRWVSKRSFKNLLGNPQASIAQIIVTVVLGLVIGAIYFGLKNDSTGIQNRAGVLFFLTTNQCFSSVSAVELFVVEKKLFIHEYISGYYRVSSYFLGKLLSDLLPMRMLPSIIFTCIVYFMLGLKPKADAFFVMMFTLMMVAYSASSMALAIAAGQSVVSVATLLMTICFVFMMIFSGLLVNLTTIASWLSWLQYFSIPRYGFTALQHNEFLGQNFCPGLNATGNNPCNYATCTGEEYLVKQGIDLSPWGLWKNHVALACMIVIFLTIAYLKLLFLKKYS

[7] = tested on: Caco-2 cell monolayers; settings: Table VI; 10 μM, 2 h
[8] = cited from earlier work
[9] = tested on: SMI microtissues
[10] = in vitro; settings: human

Chain of P-gp (P08183 whole entry): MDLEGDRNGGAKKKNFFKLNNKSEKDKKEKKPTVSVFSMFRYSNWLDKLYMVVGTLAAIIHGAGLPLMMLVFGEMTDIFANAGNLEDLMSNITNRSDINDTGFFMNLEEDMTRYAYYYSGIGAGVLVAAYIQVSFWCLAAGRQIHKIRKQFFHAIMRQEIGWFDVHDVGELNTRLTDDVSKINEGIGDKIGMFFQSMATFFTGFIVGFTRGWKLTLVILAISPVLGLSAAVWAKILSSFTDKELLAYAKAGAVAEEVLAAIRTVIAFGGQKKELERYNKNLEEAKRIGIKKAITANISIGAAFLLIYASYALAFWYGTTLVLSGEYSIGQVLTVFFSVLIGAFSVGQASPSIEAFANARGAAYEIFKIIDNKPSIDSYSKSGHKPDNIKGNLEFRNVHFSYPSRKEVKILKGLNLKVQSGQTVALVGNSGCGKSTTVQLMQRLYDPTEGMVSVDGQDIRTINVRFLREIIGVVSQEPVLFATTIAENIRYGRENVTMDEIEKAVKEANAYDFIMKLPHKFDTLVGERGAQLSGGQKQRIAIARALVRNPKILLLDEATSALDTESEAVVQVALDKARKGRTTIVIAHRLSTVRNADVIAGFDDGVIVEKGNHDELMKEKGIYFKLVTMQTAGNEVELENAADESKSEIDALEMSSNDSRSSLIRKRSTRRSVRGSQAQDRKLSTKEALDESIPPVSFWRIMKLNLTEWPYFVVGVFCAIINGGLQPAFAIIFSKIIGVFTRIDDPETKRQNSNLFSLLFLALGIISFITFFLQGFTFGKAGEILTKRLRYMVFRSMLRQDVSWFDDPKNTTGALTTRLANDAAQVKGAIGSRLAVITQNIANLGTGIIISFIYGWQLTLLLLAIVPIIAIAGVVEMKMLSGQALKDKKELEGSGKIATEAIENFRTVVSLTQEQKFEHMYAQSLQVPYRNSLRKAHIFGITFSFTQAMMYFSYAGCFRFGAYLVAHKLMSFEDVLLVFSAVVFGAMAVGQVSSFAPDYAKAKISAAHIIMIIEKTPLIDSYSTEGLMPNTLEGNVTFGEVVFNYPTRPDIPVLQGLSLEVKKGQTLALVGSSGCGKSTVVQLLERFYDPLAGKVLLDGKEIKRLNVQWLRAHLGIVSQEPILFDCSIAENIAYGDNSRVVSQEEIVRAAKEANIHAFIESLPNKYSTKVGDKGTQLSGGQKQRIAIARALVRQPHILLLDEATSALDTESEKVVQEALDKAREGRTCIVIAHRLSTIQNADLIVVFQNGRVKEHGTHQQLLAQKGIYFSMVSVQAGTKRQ

CCCC(=O)Nc1ccc(OCC(O)CNC(C)C)c(C(C)=O)c1 (centres unmarked) [Acebutolol]
Papp at 2 h, 10 μM [1]: 0.4 ×10⁻⁶ cm/s | viability at 96 h, 1 µM [2]: 98.5% | viability at 96 h, 10 µM [2]: 97.5%

Nc1nc2c(ncn2COCCO)c(=O)[nH]1 [Acyclovir]
Papp at 2 h, 10 μM [1]: 0.9 ×10⁻⁶ cm/s | viability at 96 h, 1 µM [2]: 104% | viability at 96 h, 10 µM [2]: 97.6% | viability at 96 h, 100 µM [2]: 91.1%

CN/C(=N/CCSCc1nc[nH]c1C)NC#N [Cimetidine]
Papp at 2 h, 10 μM [1]: 2.7 ×10⁻⁶ cm/s | viability at 96 h, 1 µM [2]: 109% | viability at 96 h, 10 µM [2]: 103% | viability at 96 h, 100 µM [2]: 96.1%

C[C@H]1O[C@@H](O[C@H]2[C@@H](O)C[C@H](O[C@H]3[C@@H](O)C[C@H](O[C@H]4CC[C@@]5(C)[C@H](CC[C@@H]6[C@@H]5C[C@@H](O)[C@]5(C)[C@@H](C7=CC(=O)OC7)CC[C@]65O)C4)O[C@@H]3C)O[C@@H]2C)C[C@H](O)[C@@H]1O [Digoxin]
Papp B→A at 2 h, 10 μM [3]: 29 ± 5 ×10⁻⁶ cm/s | Papp at 2 h, 10 μM [3]: 12.6 ± 0.74 ×10⁻⁶ cm/s | efflux ratio at 2 h, 10 μM [3]: 2.3 | Papp at 2 h, 10 μM ([3]; with Verapamil 100 uM): 16 ± 1.75 ×10⁻⁶ cm/s | efflux ratio at 2 h, 10 μM ([3]; with Verapamil 100 uM): 1.4

CCOC(=O)[C@H](CCc1ccccc1)N[C@@H](C)C(=O)N1CCC[C@H]1C(=O)O [Enalapril]
Papp at 2 h, 10 μM [1]: 0.2 ×10⁻⁶ cm/s | viability at 96 h, 1 µM [2]: 109% | viability at 96 h, 10 µM [2]: 105% | viability at 96 h, 100 µM [2]: 99%

CC[C@H]1OC(=O)[C@H](C)[C@@H](O[C@H]2C[C@@](C)(OC)[C@@H](O)[C@H](C)O2)[C@H](C)[C@@H](O[C@@H]2O[C@H](C)C[C@H](N(C)C)[C@H]2O)[C@](C)(O)C[C@@H](C)C(=O)[C@H](C)[C@@H](O)[C@]1(C)O [Erythromycin]
Papp at 2 h, 10 μM [1]: 0.2 ×10⁻⁶ cm/s

O=C1NC(c2ccccc2)(c2ccccc2)C(=O)N1COP(=O)(O)O [Fosphenytoin]
Papp A→B at 2 h, 10 μM ([4]; Transport A-B): 12.3 ×10⁻⁶ cm/s | Papp A→B at 2 h, 10 μM ([4]; line Transport B-A): 3.77 ×10⁻⁶ cm/s | Efflux [5]: 0.31

CN(C)C(=O)C(CCN1CCC(O)(c2ccc(Cl)cc2)CC1)(c1ccccc1)c1ccccc1 [Loperamide]
efflux ratio at 2 h, 10 μM ([3]; Efflux ratio, with inhibitor Verapamil 100 uM, substrate 10 μM, 2 hr): 6.5 | Papp at 2 h, 10 μM ([3]; Mean A- > B Papp, No Inhibitor, substrate 10 μM, 2 hr, n = 3): 0.9 ×10⁻⁶ cm/s | Papp B→A at 2 h, 10 μM ([3]; Mean B- > A Papp, No Inhibitor, substrate 10 μM, 2 hr, n = 3): 15.5 ± 4.6 ×10⁻⁶ cm/s

Cc1ncc2n1-c1ccc(Cl)cc1C(c1ccccc1F)=NC2 [Midazolam]
Papp A→B at 2 h, 10 μM ([4]; Transport A-B): 14.4 ×10⁻⁶ cm/s | Papp A→B at 2 h, 10 μM ([4]; line Transport B-A): 13.7 ×10⁻⁶ cm/s | Efflux [5]: 0.95

O=C1CN(/N=C/c2ccc([N+](=O)[O-])o2)C(=O)N1 [Nitrofurantoin]
Papp B→A at 2 h, 10 μM [6]: 28.4 ± 3.3 ×10⁻⁶ cm/s | Papp at 2 h, 10 μM [6]: 2.7 ± 1.6 ×10⁻⁶ cm/s | Papp B→A at 2 h, 10 μM ([6]; with Novobiocin 50 uM): 18.9 ± 1 ×10⁻⁶ cm/s | Papp at 2 h, 10 μM ([6]; with Novobiocin 50 uM): 4.7 ± 0.65 ×10⁻⁶ cm/s

CC(C)NCC(O)COc1cccc2ccccc12 (centres unmarked) [Propranolol]
Caco-2 mean A- > B Papp [7]: 12.9 10^−6 cm s^−1

C=C[C@H]1C[N@@]2CC[C@H]1C[C@@H]2[C@@H](O)c1ccnc2ccc(OC)cc12 [Quinidine]
Fraction absorbed (%) in humans ([8]; in vivo): 80% | viability at 96 h, 1 µM [2]: 99.4% | viability at 96 h, 10 µM [2]: 100% | viability at 96 h, 100 µM [2]: 99.3%

CNC(=C[N+](=O)[O-])NCCSCc1ccc(CN(C)C)o1 [Ranitidine]
Papp A→B at 2 h, 10 μM [1]: 0.2 ×10⁻⁶ cm/s | Papp at 2 h, 10 μM [1]: 0.1 ×10⁻⁶ cm/s | Fraction absorbed in humans (class) ([8]; Table IX, class in brackets, no reference given): Moderate | viability at 96 h, 1 µM [2]: 102% | viability at 96 h, 10 µM [2]: 98.1% | viability at 96 h, 100 µM [2]: 96% | Papp A- > B SMI microtissues ([5]; Table V, mean of n = 2 SMI microtissue lots): 2.2 ± 0.5 10^−6 cm^s−1

CC(C)c1nc(N(C)S(C)(=O)=O)nc(-c2ccc(F)cc2)c1/C=C/[C@@H](O)C[C@@H](O)CC(=O)O [Rosuvastatin]
Papp B→A at 2 h, 10 μM [3]: 9.4 ± 1 ×10⁻⁶ cm/s | Papp at 2 h, 10 μM [3]: 0.5 ± 0.07 ×10⁻⁶ cm/s | Papp B→A at 2 h, 10 μM ([3]; with Elacider 100 uM): 5.3 ± 0.3 ×10⁻⁶ cm/s

CC(=O)CC(c1ccccc1)c1c(O)c2ccccc2oc1=O (centres unmarked) [Warfarin]
Papp A- > B SMI microtissues [9]: 22.3 ± 0.5 10^−6 cm^s−1 | Papp at 2 h, 10 μM ([10]; Lot #1 Mean A- > B Papp): 48.5 ± 8.18 ×10⁻⁶ cm/s | Papp at 2 h, 10 μM ([10]; Lot #2 Mean A- > B Papp): 24.3 ± 0.86 ×10⁻⁶ cm/s | Papp at 2 h, 10 μM ([10]; Lot #3 Mean A- > B Papp): 19.9 ± 3.45 ×10⁻⁶ cm/s | Papp at 2 h, 10 μM ([10]; SMI mean A- > B Papp): 36.7 ± 16.8 ×10⁻⁶ cm/s | Papp A→B at 2 h, 10 μM [1]: 27.8 ± 7.6 ×10⁻⁶ cm/s | Papp at 2 h, 10 μM [1]: 28.6 ×10⁻⁶ cm/s
